Reference: article PMC10586506 (Drug Metabolism and Disposition, 2023)
Counter-ions that a name gives are not always drawn. Like-named read-outs stand apart in the source and are kept apart here.

Columns and labels:
Caco-2 cell monolayers = conditions: cited from earlier work
human OCT1 = conditions: ref Nguyen et al., 2021, cited from earlier work; for IC50: read-out: IC50 OCT1, extract normalized to berberine
human OCT3 = target: T1, human OCT3 (Homo sapiens, UniProt O75751); assay: OCT3 inhibition in HEK293-LV cells overexpressing the transporter; format: cell-based; conditions: for inhibition at 10 µM / inhibition at 100 µM: read-out: OCT3 (%) percent inhibition of transporter activity
T1 sequence (O75751 1-556): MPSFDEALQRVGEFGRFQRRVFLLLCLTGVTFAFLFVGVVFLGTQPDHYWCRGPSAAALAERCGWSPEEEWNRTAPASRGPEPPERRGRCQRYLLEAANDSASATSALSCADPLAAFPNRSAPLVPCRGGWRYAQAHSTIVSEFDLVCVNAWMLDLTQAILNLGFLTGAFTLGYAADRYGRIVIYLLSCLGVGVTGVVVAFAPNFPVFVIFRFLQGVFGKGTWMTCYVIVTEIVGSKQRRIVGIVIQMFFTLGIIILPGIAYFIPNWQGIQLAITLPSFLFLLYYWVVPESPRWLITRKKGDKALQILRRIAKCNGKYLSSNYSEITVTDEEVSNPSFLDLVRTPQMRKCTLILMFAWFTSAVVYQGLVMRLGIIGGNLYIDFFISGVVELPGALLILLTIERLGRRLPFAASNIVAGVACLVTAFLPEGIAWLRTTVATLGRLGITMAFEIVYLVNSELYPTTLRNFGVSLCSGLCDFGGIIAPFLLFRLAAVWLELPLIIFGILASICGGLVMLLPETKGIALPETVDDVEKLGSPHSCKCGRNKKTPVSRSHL

human PMAT = target: T2, human PMAT (Homo sapiens, UniProt Q7RTT9); assay: PMAT inhibition in HEK293-LV cells overexpressing the transporter; format: cell-based; conditions: for inhibition at 10 µM / inhibition at 100 µM: read-out: PMAT (%) percent inhibition of transporter activity
T2 sequence (Q7RTT9 1-530): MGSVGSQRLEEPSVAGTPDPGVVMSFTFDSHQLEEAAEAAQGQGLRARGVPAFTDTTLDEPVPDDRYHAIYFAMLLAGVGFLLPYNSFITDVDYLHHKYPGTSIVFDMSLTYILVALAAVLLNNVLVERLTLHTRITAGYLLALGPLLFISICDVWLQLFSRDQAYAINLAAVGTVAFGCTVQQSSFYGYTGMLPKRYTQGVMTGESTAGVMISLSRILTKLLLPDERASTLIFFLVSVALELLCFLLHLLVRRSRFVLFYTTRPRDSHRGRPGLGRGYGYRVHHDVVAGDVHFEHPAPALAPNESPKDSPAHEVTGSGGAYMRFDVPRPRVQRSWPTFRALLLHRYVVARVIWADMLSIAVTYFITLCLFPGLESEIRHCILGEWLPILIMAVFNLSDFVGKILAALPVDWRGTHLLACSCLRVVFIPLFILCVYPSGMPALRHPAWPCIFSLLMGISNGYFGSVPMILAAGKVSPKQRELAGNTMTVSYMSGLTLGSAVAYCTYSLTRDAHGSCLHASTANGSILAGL

human THTR2 = target: T3, human THTR2 (Homo sapiens, UniProt Q9BZV2); assay: THTR2 inhibition in HEK293-LV cells overexpressing the transporter; format: cell-based; conditions: for inhibition at 10 µM / inhibition at 100 µM: read-out: THTR2 (%) percent inhibition of transporter activity
T3 sequence (Q9BZV2 1-496): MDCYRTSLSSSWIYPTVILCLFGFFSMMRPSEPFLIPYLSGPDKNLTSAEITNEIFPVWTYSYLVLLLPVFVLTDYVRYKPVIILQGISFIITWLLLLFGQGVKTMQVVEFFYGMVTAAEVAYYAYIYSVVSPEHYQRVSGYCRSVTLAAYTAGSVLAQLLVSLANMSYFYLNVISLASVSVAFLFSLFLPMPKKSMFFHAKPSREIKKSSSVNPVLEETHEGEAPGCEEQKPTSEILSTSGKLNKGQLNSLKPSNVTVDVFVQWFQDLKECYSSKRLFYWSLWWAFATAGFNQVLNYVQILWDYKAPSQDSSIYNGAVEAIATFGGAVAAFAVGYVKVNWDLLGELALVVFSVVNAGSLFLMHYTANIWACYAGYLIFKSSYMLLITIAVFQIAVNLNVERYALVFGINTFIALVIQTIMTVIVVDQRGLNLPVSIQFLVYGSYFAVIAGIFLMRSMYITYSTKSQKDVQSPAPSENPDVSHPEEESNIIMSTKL

[1] = humans, single 2.7 g dose of goldenseal; ref Gupta et al., 2015; cited from earlier work
[2] = Oral metformin/oral inhibitor pharmacokinetic study in mice; conditions: for decrease in geometric mean metformin Cmax relative to vehicle: oral metformin 10 mg/kg with oral test article; for effect on metformin pharmacokinetics: oral metformin with oral test article
[3] = humans; ref Nguyen et al., 2021; cited from earlier work

SMILES	inhibition of OCT1 (in words) (human OCT1)	inhibition of OCT3 (in words) (human OCT3)	inhibition at 10 µM (human OCT3)	inhibition at 100 µM (human OCT3)	inhibition of PMAT (in words) (human PMAT)	inhibition at 10 µM (human PMAT)	inhibition at 100 µM (human PMAT)	inhibition of THTR2 (in words) (human THTR2)	inhibition at 10 µM (human THTR2)	inhibition at 100 µM (human THTR2)	Cmax [1]	IC50 (human OCT1)	decrease in geometric mean metformin Cmax relative to vehicle [2]	effect on metformin pharmacokinetics [2]	further results
CN(C)C(=N)N=C(N)N [metformin, Metformin hydrochloride salt]															percent contribution of OCT1 to metformin uptake (Caco-2 cell monolayers; ref Han et al., 2015): 25%; percent contribution of PMAT to metformin uptake (Caco-2 cell monolayers; ref Han et al., 2015): 20%; percent contribution of SERT to metformin uptake (Caco-2 cell monolayers; ref Han et al., 2015): 20%; percent contribution of choline transporter to metformin uptake (Caco-2 cell monolayers; ref Han et al., 2015): 15%; percent contribution of passive diffusion to metformin uptake (Caco-2 cell monolayers; ref Han et al., 2015): 20%; percent contribution of OCT3 to metformin uptake (Caco-2 cell monolayers; ref Shirasaka et al., 2022): 10%; percent contribution of PMAT to metformin uptake (Caco-2 cell monolayers; ref Shirasaka et al., 2022): 10%; percent contribution of SERT to metformin uptake (Caco-2 cell monolayers; ref Shirasaka et al., 2022): 2%; percent contribution of THTR2 to metformin uptake (Caco-2 cell monolayers; ref Shirasaka et al., 2022): 22%; percent contribution of other (unidentified) transporters to metformin uptake (Caco-2 cell monolayers; ref Shirasaka et al., 2022): 1%; percent contribution of passive diffusion to metformin uptake (Caco-2 cell monolayers; ref Shirasaka et al., 2022): 55%
CN1CCc2cc3c(cc2C1O)OCO3 (stereo not drawn) [Hydrastinine, Hydrastinine chloride monohydrate]	did not inhibit	did not inhibit	-5%	-3%	did not inhibit	11%	43%	did not inhibit	2%	19%					
COc1ccc2c(c1OC)C(=O)O[C@@H]2[C@H]1c2cc3c(cc2CCN1C)OCO3 [(–)-β-hydrastine, (–)-β-Hydrastine]	only inhibited OCT1		3%	24%		-9%	37%		7%	-4%	1.75 nM	6.6 µM	no effect	no effect	
COc1ccc2cc3[n+](cc2c1OC)CCc1cc2c(cc1-3)OCO2 [Berberine, Berberine chloride hydrate]	inhibited	inhibited	55%	95%	inhibited	8%	71%	inhibited	-2%	43%	470 nM	19 µM	no effect	no effect	estimated intestinal luminal inhibitor concentration [3]: 354 µM; IC50 of berberine alone relative to goldenseal extract (human OCT3; across OCT3, PMAT and THTR2, fold higher): 2.8- to 7.4 fold
